Experimental data: US10428060B2, “PI-kinase inhibitors with anti-infective activity” (The Board of Trustees of the Leland Stanford Junior …, priority 2011, dated 2019)

Each molecule was assayed against T1, PI3K p110g (Homo sapiens, UniProt P48736) (assay: PI3K p110g kinase assay). Settings: not given.
T1 construct: purchased Millipore
Type: biochemical
Protocol: (§1) In the assays described here, p110α-p85 complex and p110γ were acquired from Millipore. Assays were performed with Lα-phosphatidylinositol (Avanti) as described in Knight et al. Nat Protoc. 2007; 2 (10):2459-66. Inhibitor series were prepared 10% DMSO as 5× stocks for the assay. Assays of HsVps34 were performed as described in Knight et al, except that the final assay buffer composition used was changed to 20 mM HEPES 7.5, 100 mM NaCl, 3 mM MgCl, 1 mg/mL PI and 44 nM hvps34 was used in the assay. […] COS-7 cells were cultured in 10 cm dishes and transfected at 70% confluence with 10 μg of plasmid DNA (HA-tagged bovine PI4KIIIβ, HA-tagged human PI4KIIIα) using Lipofectamine 2000 and 5 ml Opti-MEM following the manufacturer's instructions. After 5 hours the transfection medium was replaced with 10 ml complete DMEM. 36 hrs post transfection, cells were washed once with 5 ml PBS (pH 7.4) and lysed in 1 ml of lysis buffer (1) on ice. Lysates were collected by scraping and after 15 min they were centrifuged at 13,000 rpm for 10 min. To the lysates was added 200 μl of protein G Sepharose 4 fast flow beads that were prewashed with PBS and lysis buffer and 2 μg of anti-HA antibody. The tubes were then incubated overnight at 4 degrees C. in a tube rotator. The Sepharose beads in the lysate were washed twice with 150 mM NaCl in RIPA buffer, twice with RIPA buffer and once with kinase buffer (50 mM Tris/HCl, pH 7.5, 20 mM MgCl2, 1 mM EGTA, 1 mM PtdIns, 0.4% Triton X-100, 0.5 mg/mL BSA) and finally the beads were resuspended in 200 μL kinase buffer. Kinase reactions were run in a mixture of 45 μL of PI buffer (1 mM PI in kinase buffer), 10 μL of immunoprecipitated beads, 2 µL of inhibitors (dissolved and diluted in DMSO) or DMSO and 5 μL of [γ-^32P]-ATP (1 mM and 2 μCi/tube). The immunoprecipitates in PI buffer were pre-incubated with the drugs for 20 min prior the initiation of kinase reaction by adding ATP and the reactions were carried out for 30 min in 15 ml polypropolyne tubes. Reactions were terminated by addition of 3 ml of CHCl3:CH3OH:HCl (200:100:0.75) followed by 0.6 ml of 0.6N HCl to induce phase separation. The mixtures were vortexed, centrifuged at 2000 rpm for 2 min and the upper phase was discarded. To the lower phase was added 1.5 ml of CHCl3:CH3OH:0.6N HCl (3:48:47) and the mixture vortexed and centrifuged at 2000 rpm for 2 min. The lower phase was then transferred to counting vials and evaporated. Samples were counted in a scintillation beta counter after adding 5 ml of Instafluor (Perkin-Elmer).
PI-kinase assay: Compounds are tested in C.1.1. PI kinase assays as described by Shokat et al., “A membrane capture assay for lipid kinase activity.” Nat. Protoc. 2007; 2(10):2459-66.

T1 sequence (P48736 whole entry): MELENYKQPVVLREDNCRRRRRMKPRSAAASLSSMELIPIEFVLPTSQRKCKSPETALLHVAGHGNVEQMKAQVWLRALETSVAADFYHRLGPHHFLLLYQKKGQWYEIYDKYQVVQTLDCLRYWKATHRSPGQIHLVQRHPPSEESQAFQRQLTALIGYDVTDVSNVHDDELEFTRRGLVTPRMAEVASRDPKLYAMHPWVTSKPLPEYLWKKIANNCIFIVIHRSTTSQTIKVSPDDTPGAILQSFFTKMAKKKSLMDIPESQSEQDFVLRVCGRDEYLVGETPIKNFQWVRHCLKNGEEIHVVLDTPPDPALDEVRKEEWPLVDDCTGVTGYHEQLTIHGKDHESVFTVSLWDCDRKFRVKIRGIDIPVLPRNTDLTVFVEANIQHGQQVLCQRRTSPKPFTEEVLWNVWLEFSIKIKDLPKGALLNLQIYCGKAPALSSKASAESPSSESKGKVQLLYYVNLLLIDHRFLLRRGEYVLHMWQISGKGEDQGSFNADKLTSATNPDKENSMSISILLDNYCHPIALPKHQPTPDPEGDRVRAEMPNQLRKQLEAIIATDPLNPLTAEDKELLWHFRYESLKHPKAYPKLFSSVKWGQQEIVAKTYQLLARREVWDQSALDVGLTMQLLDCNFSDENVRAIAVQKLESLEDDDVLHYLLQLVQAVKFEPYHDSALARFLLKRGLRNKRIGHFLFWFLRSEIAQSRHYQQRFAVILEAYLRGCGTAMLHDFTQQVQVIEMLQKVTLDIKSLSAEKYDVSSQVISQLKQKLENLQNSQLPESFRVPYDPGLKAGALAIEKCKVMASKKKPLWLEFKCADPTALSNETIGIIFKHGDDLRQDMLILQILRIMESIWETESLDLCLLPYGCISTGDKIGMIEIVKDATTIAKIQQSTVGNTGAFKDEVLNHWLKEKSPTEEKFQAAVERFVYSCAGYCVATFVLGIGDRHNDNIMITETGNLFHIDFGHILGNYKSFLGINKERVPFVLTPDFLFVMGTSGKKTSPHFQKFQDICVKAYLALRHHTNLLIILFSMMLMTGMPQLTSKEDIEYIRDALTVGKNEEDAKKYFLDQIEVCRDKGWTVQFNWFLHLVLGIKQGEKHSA

SMILES | IC50
COc1ccc(-c2sc(NCC3CCCCC3)nc2C)cc1S(=O)(=O)NC1CC1 [Compound S-127, 5-[2-(cyclohexylmethylamino)-4-methyl-thiazol-5-yl]-N-cyclopropyl-2-methoxy-benzenesulfonamide] | > 10000 nM
COc1ncc(-c2sc(NC(=O)CC3CCOCC3)nc2C)cc1S(=O)(=O)Nc1ccc(F)cc1F [Compound S-260] | > 10000 nM
COc1ccc(-c2sc(NC3CCCCC3)nc2C)cc1S(=O)(=O)NC1CCCC1 [Compound S-129, 5-[2-(cyclohexylamino)-4-methyl-thiazol-5-yl]-N-cyclopentyl-2-methoxy-benzenesulfonamide] | > 10000 nM
COc1ccc(-c2sc(NC(=O)CC3CCCC3)nc2C)cc1S(=O)(=O)Nc1ccc(C)nc1 [Compound S-100, 2-cyclopentyl-N-[5-[4-methoxy-3-[(6-methyl-3-pyridyl)sulfamoyl]phenyl]-4-methyl-thiazol-2-yl]acetamide; 2,2,2-trifluoroacetic acid] | > 10000 nM
COc1ccc(-c2sc(NCC3CCCCC3)nc2C)cc1S(=O)(=O)NCC1CCCCC1 [Compound S-128, N-(cyclohexylmethyl)-5-[2-(cyclohexylmethylamino)-4-methyl-thiazol-5-yl]-2-methoxy-benzenesulfonamide] | > 10000 nM

Further lines, results first:

IC50 | SMILES
1000 to 10000 nM | COc1ncc(-c2sc(NC(=O)CC3CCOCC3)nc2C)cc1S(=O)(=O)N[C@H]1CC[C@@H](O)CC1 [Compound S-262]
1000 to 10000 nM | COc1ncc(-c2sc(NC(=O)CC3CCOCC3)nc2C)cc1S(=O)(=O)Nc1cccc(O)c1 [Compound S-259]
> 10000 nM | COc1ncc(-c2sc(NC(=O)CC3CCOCC3)nc2C)cc1S(=O)(=O)Nc1cccc(C(=O)O)c1 [Compound S-265]
> 10000 nM | COc1ccc(-c2sc(N[C@H](C)C3CCCCC3)nc2C)cc1S(=O)(=O)NC1CCNCC1 [Compound S-147, 5-[2-[[(1R)-1-cyclohexylethyl]amino]-4-methyl-thiazol-5-yl]-2-methoxy-N-(4-piperidyl)benzenesulfonamide]
> 10000 nM | COc1ccc(-c2sc(NC(=O)CC3CCOCC3)nc2C)cc1S(=O)(=O)Nc1cc(C)cc(O)c1 [Compound S-169, N-[5-[3-[(3-hydroxy-5-methyl-phenyl)sulfamoyl]-4-methoxy-phenyl]-4-methyl-thiazol-2-yl]-2-tetrahydropyran-4-yl-acetamide]
> 10000 nM | COc1ccc(-c2sc(NC(=O)CC3CCOCC3)nc2C)cc1S(=O)(=O)Nc1ccc(F)cc1 [Compound S-170, N-[5-[3-[(4-fluorophenyl)sulfamoyl]-4-methoxy-phenyl]-4-methyl-thiazol-2-yl]-2-tetrahydropyran-4-yl-acetamide]
> 10000 nM | COc1ccc(-c2sc(N[C@H](C)CC3CCCCC3)nc2C)cc1S(=O)(=O)NC1CCNCC1 [Compound S-145, 5-[2-[[(1R)-2-cyclohexyl-1-methyl-ethyl]amino]-4-methyl-thiazol-5-yl]-2-methoxy-N-(4-piperidyl)benzenesulfonamide]

What follows are molecules tested on HRV (assay: Rhinovirus antiviral assay). Settings: Human rhinovirus sp.
Type: cell-based

EC50 | SMILES
< 1 nM | COc1ccc(NS(=O)(=O)c2cc(-c3sc(NC4CCCCCC4)nc3C)ccc2OC)c(C)c1 [Compound S-89, 5-[2-(cycloheptylamino)-4-methyl-thiazol-5-yl]-2-methoxy-N-(4-methoxy-2-methyl-phenyl)benzenesulfonamide; 2,2,2-trifluoroactic acid]
< 1 nM | COc1ccc(NS(=O)(=O)c2cc(-c3sc(NC(=O)CC4CCCCC4)nc3C)ccc2OC)c(C)c1 [Compound S-85, 2-cyclohexyl-N-[5-[4-methoxy-3-[(4-methoxy-2-methyl-phenyl)sulfamoyl]phenyl]-4-methyl-thiazol-2-yl]acetamide]
< 1 nM | COc1ccc(-c2sc(NC3CCCCC3)nc2C)cc1S(=O)(=O)Nc1ccc(O)cc1C [Compound S-106, 5-[2-(cyclohexylamino)-4-methyl-thiazol-5-yl]-N-(4-hydroxy-2-methyl-phenyl)-2-methoxy-benzenesulfonamide]

SMILES | EC50
COc1ncc(-c2sc(NC(=O)CC3CCOCC3)nc2C)cc1S(=O)(=O)Nc1ccc(F)cc1F [Compound S-260] | 1000 to 10000 nM
COc1ccc(NS(=O)(=O)c2cc(-c3sc(NC4CCCCC4)nc3C)ccc2OC)c(C)c1 [Compound S-66, 5-[2-(cyclohexylamino)-4-methyl-thiazol-5-yl]-2-methoxy-N-(4-methoxy-2-methyl-phenyl)benzenesulfonamide; 2,2,2-trifluoroacetic acid] | < 1 nM

These molecules were tested against T2, PI4KIIIB (Bos taurus, UniProt O02810) (assay: PI4KIIIB kinase assay). Settings: not given.
T2 construct: made in house; host or cells: COS-7 cells, transient transfection, anti-HA immunoprecipitate on protein G Sepharose beads
Type: biochemical, bovine
Protocol: as §1, with “2007; 2 (10):2459-66.” left out, “for” for “for the assay. Assays of HsVps34 were performed as described in Knight et al, except that the final assay buffer composition used was changed to 20 mM HEPES 7.5, 100 mM NaCl, 3 mM MgCl, 1 mg/mL PI and 44 nM hvps34 was used in”, “Lysates were collected by scraping and after 15 min they were centrifuged at 13,000 rpm for 10 min.” left out, “The Sepharose beads in the lysate were washed twice with 150 mM NaCl in RIPA buffer, twice with RIPA buffer and once with kinase buffer (50 mM Tris/HCl, pH 7.5, 20 mM MgCl2, 1 mM EGTA, 1 mM PtdIns, 0.4% Triton X-100, 0.5 mg/mL BSA) and finally the beads were resuspended in 200 μL kinase buffer.” left out
PI-kinase assay: Compounds are tested in C.1.1. PI kinase assays as described by Shokat et al., “A membrane capture assay for lipid kinase activity.” Nat. Protoc.

T2 sequence (O02810 whole entry): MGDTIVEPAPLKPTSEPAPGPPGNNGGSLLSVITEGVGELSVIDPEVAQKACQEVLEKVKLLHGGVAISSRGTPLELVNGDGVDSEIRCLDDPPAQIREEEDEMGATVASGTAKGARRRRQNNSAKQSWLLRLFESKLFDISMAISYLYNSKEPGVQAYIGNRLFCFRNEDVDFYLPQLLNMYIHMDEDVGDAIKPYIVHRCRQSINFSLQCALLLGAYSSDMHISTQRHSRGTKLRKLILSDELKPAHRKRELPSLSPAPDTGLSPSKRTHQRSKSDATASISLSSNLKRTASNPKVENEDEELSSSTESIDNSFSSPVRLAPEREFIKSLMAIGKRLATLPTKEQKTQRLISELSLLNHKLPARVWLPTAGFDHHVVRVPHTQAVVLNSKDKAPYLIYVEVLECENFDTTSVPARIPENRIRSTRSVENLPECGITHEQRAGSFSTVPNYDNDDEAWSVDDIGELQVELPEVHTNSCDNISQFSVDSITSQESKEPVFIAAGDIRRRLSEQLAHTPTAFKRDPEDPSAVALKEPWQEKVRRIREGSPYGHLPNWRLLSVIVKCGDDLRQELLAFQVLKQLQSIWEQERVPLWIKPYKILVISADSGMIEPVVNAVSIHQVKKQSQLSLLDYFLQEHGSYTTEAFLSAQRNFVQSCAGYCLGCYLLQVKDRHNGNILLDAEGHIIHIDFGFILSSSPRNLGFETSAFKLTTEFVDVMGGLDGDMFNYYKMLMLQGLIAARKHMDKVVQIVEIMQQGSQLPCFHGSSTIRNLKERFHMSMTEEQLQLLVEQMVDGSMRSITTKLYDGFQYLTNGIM

IC50 | SMILES
< 100 nM | COc1ccc(-c2sc(NCC3CCCCC3)nc2C)cc1S(=O)(=O)NC1CCCC(O)C1 (centres unmarked) [Compound S-199, 5-[2-(cyclohexylmethylamino)-4-methyl-thiazol-5-yl]-N-(3-hydroxycyclohexyl)-2-methoxy-benzenesulfonamide]
< 100 nM | COc1ccc(-c2sc(NCC(C)C)nc2C)cc1S(=O)(=O)NC1CCCC(O)C1 (centres unmarked) [Compound S-223, N-(3-hydroxycyclohexyl)-5-[2-(isobutylamino)-4-methyl-thiazol-5-yl]-2-methoxy-benzenesulfonamide; 2,2,2-trifluoroacetic acid]
< 100 nM | COc1ccc(-c2sc(NC(C)(C)C)nc2C)cc1S(=O)(=O)NC1CCCNC1 (centres unmarked) [Compound S-220, 5-[2-(tert-butylamino)-4-methyl-thiazol-5-yl]-2-methoxy-N-(3-piperidyl)benzenesulfonamide]
< 100 nM | COc1ccc(-c2sc(NC(=O)CC3CCCC3)nc2C)cc1S(=O)(=O)NC1CCCNC1 (centres unmarked) [Compound S-173, 2-cyclopentyl-N-[5-[4-methoxy-3-(3-piperidylsulfamoyl)phenyl]-4-methyl-thiazol-2-yl]acetamide; 2,2,2-trifluoroacetic acid]
< 100 nM | COc1ccc(-c2sc(NC(C)(C)C)nc2C)cc1S(=O)(=O)NC1CCCC(O)C1 (centres unmarked) [Compound S-218, 5-[2-(tert-butylamino)-4-methyl-thiazol-5-yl]-N-(3-hydroxycyclohexyl)-2-methoxy-benzenesulfonamide]
< 100 nM | Cc1ccc(-c2sc(NC(=O)CC3CCCC3)nc2C)cc1S(=O)(=O)NC1CCCNC1 (centres unmarked) [Compound S-189, 2-cyclopentyl-N-[4-methyl-5-[4-methyl-3-(3-piperidylsulfamoyl)phenyl]thiazol-2-yl]acetamide]
< 100 nM | COc1ccc(-c2sc(NC(=O)CCC3CCCC3)nc2C)cc1S(=O)(=O)NC1CCC(O)CC1 (centres unmarked) [Compound S-156, 3-cyclopentyl-N-[5-[3-[(4-hydroxycyclohexyl)sulfamoyl]-4-methoxy-phenyl]-4-methyl-thiazol-2-yl]propanamide]

Each molecule was assayed on HCV genotype 2a (assay: microbe, parasite or virus in culture). Settings: Hepatitis C virus, Huh7.5, read-out: HCV2a EC50.
Type: cell-based

SMILES | EC50
COc1ncc(-c2sc(NC(=O)CC3CCOCC3)nc2C)cc1S(=O)(=O)Nc1ccc(F)cc1F [Compound S-260] | 100 to 1000 nM
COc1ccc(NS(=O)(=O)c2cc(-c3sc(NC4CCCCC4)nc3C)ccc2OC)c(C)c1 [Compound S-66, 5-[2-(cyclohexylamino)-4-methyl-thiazol-5-yl]-2-methoxy-N-(4-methoxy-2-methyl-phenyl)benzenesulfonamide; 2,2,2-trifluoroacetic acid] | 1000 to 10000 nM
